# Patent US8048879B2, “Substituted 4,5,6,7-tetrahydro-isoxazolo[4,5-c]pyridine compounds and use thereof for producing medicaments” (Gruenenthal GmbH, priority 2005, dated 2011)
# Target: T1, 5-HT transporter (Rattus norvegicus, UniProt P31652)
# T1 construct: from tissue; host or cells: rat brain (medulla and pons), synaptosomes, P2 fraction
# Test: 5-HT uptake inhibition, synaptosomes from rat brain (medulla and pons)
# Assay type: biochemical
# Settings: not given
# From the text: b) Method for Determining Noradrenalin and 5-HT Uptake Inhibition:
# Synaptosomes from rat brain regions are freshly isolated for in vitro studies, as described in the publication “The isolation of nerve endings from brain” by E. G. Gray and V. P. Whittaker, J. Anatomy 96, pages 79-88, 1962. The corresponding literature description is hereby introduced as a reference and is deemed to be part of the disclosure.
# The tissue (hypothalamus for the determination of noradrenalin uptake inhibition and medulla and pons for the determination of 5-HT uptake inhibition) is homogenised in ice-cooled 0.32 M sucrose (100 mg of tissue/1 mL) in a glass homogeniser with Teflon pestle using five complete up and down strokes at 840 revolutions/minute.
# The homogenate is centrifuged at 4° C. for 10 minutes at 1000 g. After subsequent centrifugation at 17000 g for 55 minutes, the synaptosomes (P2 fraction) are obtained, which are resuspended in 0.32 M […] (0.5 mL/100 mg of original weight).
# The particular uptake is measured in a 96-well microtitre plate. The volume is 250 μL and the incubation proceeds at room temperature (approx. 20-25° C.) under an O2 atmosphere.
# The incubation time is 7.5 minutes for [^3H]-NA and 5 minutes for [^3H]-5-HT. The 96 samples are then filtered through a Unifilter GF/B® microtitre plate (Packard) and washed with 200 mL of incubated buffer using a “Brabdel MPXRI-96T Cell-Harvester”. The Unifilter GF/B plate is dried for 1 hour at 55° C. The plate is then sealed with a Back Seal® (Packard) and 35 μL of scintillation fluid are added per well (Ultima Gold®, Packard). After sealing with a top Seal® (Packard) and establishing an equilibrium (around 5 hours), radioactivity is determined in a “Trilux 1450 Microbeta” (Wallac).
# The quantity of protein used in the above determination corresponds to the values known from the literature, as for example described in “Protein measurement with the folin phenol reagent”, Lowry et al., J. Biol. Chem., 193, 265-275, 1951.
# A detailed description of the method may additionally be found in the literature, for example in M. Ch. Frink, H.-H. Hennies, W. Engelberger, M. Haurand and B. Wilffert (1996) Arzneim.-Forsch./Drug Res. 46 (III), 11, 1029-1036.
# The following characteristics were determined for the NA or 5-HT transporter: […]
# T1 sequence (P31652 whole entry): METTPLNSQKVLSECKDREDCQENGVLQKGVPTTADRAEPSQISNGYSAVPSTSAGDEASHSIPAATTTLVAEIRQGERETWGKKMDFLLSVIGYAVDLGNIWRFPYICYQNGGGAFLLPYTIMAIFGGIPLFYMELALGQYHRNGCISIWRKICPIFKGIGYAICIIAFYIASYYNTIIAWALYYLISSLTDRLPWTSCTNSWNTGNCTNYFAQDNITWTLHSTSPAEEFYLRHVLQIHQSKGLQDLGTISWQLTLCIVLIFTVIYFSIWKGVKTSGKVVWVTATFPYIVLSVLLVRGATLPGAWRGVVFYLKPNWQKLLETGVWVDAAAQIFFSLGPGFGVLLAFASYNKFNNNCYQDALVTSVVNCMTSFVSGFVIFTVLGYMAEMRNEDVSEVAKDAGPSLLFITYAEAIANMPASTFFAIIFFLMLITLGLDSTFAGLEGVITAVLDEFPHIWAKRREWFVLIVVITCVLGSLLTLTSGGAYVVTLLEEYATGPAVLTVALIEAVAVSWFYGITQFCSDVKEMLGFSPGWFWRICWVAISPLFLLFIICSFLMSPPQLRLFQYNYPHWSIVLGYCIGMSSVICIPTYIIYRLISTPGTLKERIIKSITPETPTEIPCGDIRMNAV
inhibition at 10 µM,SMILES,"5-HT uptake (rat), 10 μM, % inhibition"
81%,"CC1C(NC(=O)c2noc3c2CN(S(=O)(=O)N(C)C)CC3)CC2CC1C2(C)C (stereo not shown) [Example 60, 5-dimethylsulfamoyl-4,5,6,7-tetrahydro-isoxazolo[4,5-c]pyridine-3-carboxylic acid (2,6,6-trimethyl-bicyclo[3.1.1]hept-3-yl) amide]",
64%,"O=C(NC1CCc2ccccc21)c1noc2c1CN(S(=O)(=O)c1ccccc1)CC2 (stereo not shown) [Example 61, 5-benzenesulfonyl-4,5,6,7-tetrahydro-isoxazolo[4,5-c]pyridine-3-carboxylic acid indan-1-yl amide]",
67%,"COCCCNC(=O)c1noc2c1CN(S(=O)(=O)c1ccc(OC)cc1)CC2 [Example 62, 5-(4-methoxy-benzenesulfonyl)-4,5,6,7-tetrahydro-isoxazolo[4,5-c]pyridine-3-carboxylic acid (3-methoxy-propyl) amide]",
77%,"O=C(NCCN1CCCC1)c1noc2c1CN(C(=O)COCc1ccccc1)CC2 [Example 64, 5-(2-benzyloxy-acetyl)-4,5,6,7-tetrahydro-isoxazolo[4,5-c]pyridine-3-carboxylic acid (2-pyrrolidin-1-yl-ethyl) amide]",
62%,"C=CCCC(=O)N1CCc2onc(C(=O)NCC3CC3)c2C1 [Example 66, 5-Pent-4-enoyl-4,5,6,7-tetrahydro-isoxazolo[4,5-c]pyridine-3-carboxylic acid cyclopropylmethyl amide]",
73%,"CC(C)C(NC(=O)c1noc2c1CN(S(=O)(=O)c1cccc(C(F)(F)F)c1)CC2)C(=O)OC(C)(C)C (stereo not shown) [Example 67, 3-methyl-2-{[5-(3-trifluoromethyl-benzenesulfonyl)-4,5,6,7-tetrahydro-isoxazolo[4,5-c]pyridine-3-carbonyl]-amino}-butanoic acid tert-butyl ester]",
64%,"O=C(NCc1ccc(Cl)cc1Cl)c1noc2c1CN(S(=O)(=O)c1cccc(C(F)(F)F)c1)CC2 [Example 69, 5-(3-trifluoromethyl-benzenesulfonyl)-4,5,6,7-tetrahydro-isoxazolo[4,5-c]pyridine-3-carboxylic acid 2,4-dichloro-benzyl amide]",
63%,"CN(C)S(=O)(=O)N1CCc2onc(C(=O)N(CCC#N)Cc3cccnc3)c2C1 [Example 70, 5-dimethylsulfamoyl-4,5,6,7-tetrahydro-isoxazolo[4,5-c]pyridine-3-carboxylic acid (2-cyano-ethyl)-pyridin-3-ylmethyl-amide]",
69%,"O=C(NCCN1CCCC1)c1noc2c1CN(C(=O)CC1CCCC1)CC2 [Example 71, 5-(2-cyclopentyl-acetyl)-4,5,6,7-tetrahydro-isoxazolo[4,5-c]pyridine-3-carboxylic acid (2-pyrrolidin-1-yl-ethyl) amide]",
70%,"Cc1nn(-c2ccccc2)nc1C(=O)N1CCc2onc(C(=O)NCc3ccc(F)cc3)c2C1 [Example 72, 5-(5-methyl-2-phenyl-2H-[1,2,3]triazole-4-carbonyl)-4,5,6,7-tetrahydro-isoxazolo[4,5-c]pyridine-3-carboxylic acid 4-fluorobenzyl amide]",
65%,"O=C(NCc1cccc(Cl)c1Cl)c1noc2c1CN(S(=O)(=O)c1ccc(OC(F)(F)F)cc1)CC2 [Example 75, 5-(4-trifluoromethoxy-benzenesulfonyl)-4,5,6,7-tetrahydro-isoxazolo[4,5-c]pyridine-3-carboxylic acid 2,3-dichloro-benzyl amide]",
62%,"O=C(NCCN1CCCC1)c1noc2c1CN(C(=O)c1ccc(Cl)nc1)CC2 [Example 77, 5-(6-chloro-pyridine-3-carbonyl)-4,5,6,7-tetrahydro-isoxazolo[4,5-c]pyridine-3-carboxylic acid (2-pyrrolidin-1-yl-ethyl) amide]",
70%,"COC(=O)CCCC(=O)N1CCc2onc(C(=O)NCc3ccc(F)cc3)c2C1 [Example 78, 5-[3-(4-fluoro-benzylcarbamoyl)-6,7-dihydro-4H-isoxazolo[4,5-c]pyridin-5-yl]-5-oxo-pentanoic acid methyl ester]",
71%,"COc1ccc(CC(=O)N2CCc3onc(C(=O)NCc4ccccc4)c3C2)cc1 [Example 79, 5-[2-(4-methoxyphenyl)-acetyl]-4,5,6,7-tetrahydro-isoxazolo[4,5-c]pyridine-3-carboxylic acid benzyl amide]",
65%,"CN(CCCNC(=O)c1noc2c1CN(S(=O)(=O)c1ccc(OC(F)(F)F)cc1)CC2)c1ccccc1 [Example 80, 5-(4-trifluoromethoxy-benzenesulfonyl)-4,5,6,7-tetrahydro-isoxazolo[4,5-c]pyridine-3-carboxylic acid [3-(methylphenyl-amino)-propyl] amide]",
61%,"O=C(c1noc2c1CN(S(=O)(=O)c1cc(Cl)ccc1Cl)CC2)N1CCC(CNC(=O)C(F)(F)F)CC1 [Example 83, N-{1-[5-(2,5-dichloro-benzenesulfonyl)-4,5,6,7-tetrahydro-isoxazolo[4,5-c]pyridine-3-carbonyl]-piperidin-4-ylmethyl}-2,2,2-trifluoroacetamide]",

# The next lines start with the compound.
SMILES,inhibition at 10 µM,"5-HT uptake (rat), 10 μM, % inhibition"
"O=C(NCCc1ccccc1Cl)c1noc2c1CN(S(=O)(=O)c1cc(Cl)ccc1Cl)CC2 [Example 52, 5-(2,5-dichloro-benzenesulfonyl)-4,5,6,7-tetrahydro-isoxazolo[4,5-c]pyridine-3-carboxylic acid [2-(2-chlorophenyl)-ethyl] amide]",83%,
"COc1ccc(S(=O)(=O)N2CCc3onc(C(=O)Nc4ccc(C)cc4)c3C2)cc1 [Example 53, 5-(4-methoxy-benzenesulfonyl)-4,5,6,7-tetrahydro-isoxazolo[4,5-c]pyridine-3-carboxylic acid p-tolyl amide]",89%,
"O=C(NCc1ccc(F)cc1)c1noc2c1CN(C(=O)COc1ccccc1)CC2 [Example 54, 5-(2-phenoxy-acetyl)-4,5,6,7-tetrahydro-isoxazolo[4,5-c]pyridine-3-carboxylic acid 4-fluorobenzyl amide]",84%,
"COc1ccc(S(=O)(=O)N2CCc3onc(C(=O)N4CCN(C(C)=O)CC4)c3C2)cc1 [Example 55, 1-{4-[5-(4-methoxy-benzenesulfonyl)-4,5,6,7-tetrahydro-isoxazolo[4,5-c]pyridine-3-carbonyl]-piperazin-1-yl}-ethanone]",68%,
"O=C(NCCN1CCOCC1)c1noc2c1CN(S(=O)(=O)c1cccs1)CC2 [Example 57, 5-(thiophene-2-sulfonyl)-4,5,6,7-tetrahydro-isoxazolo[4,5-c]pyridine-3-carboxylic acid (2-morpholin-4-yl-ethyl) amide]",63%,
"COc1ccc(C(=O)N2CCc3onc(C(=O)NCCN(C)C)c3C2)cc1 [Example 58, 5-(4-methoxy-benzoyl)-4,5,6,7-tetrahydro-isoxazolo[4,5-c]pyridine-3-carboxylic acid (2-dimethylamino-ethyl) amide]",81%,
"Cc1ccc(N2CCN(C(=O)c3noc4c3CN(S(=O)(=O)c3cc(Cl)ccc3Cl)CC4)CC2)c(C)c1 [Example 65, [5-(2,5-dichloro-benzenesulfonyl)-4,5,6,7-tetrahydro-isoxazolo[4,5-c]pyridin-3-yl]-[4-(2,4-dimethyl-phenyl)-piperazin-1-yl]-methanone]",88%,
CCCCC(CC)CNC(=O)c1noc2c1CN(S(=O)(=O)c1cccc(C(F)(F)F)c1)CC2 (stereo not shown) [Example 73],,63%
Cc1ccc(C(=O)N2CCc3onc(C(=O)NCCN(C)C)c3C2)c(F)c1F [Example 74],,62%
"CN(C)S(=O)(=O)N1CCc2onc(C(=O)NCCc3ccc(Cl)cc3)c2C1 [Example 76, 5-dimethylsulfamoyl-4,5,6,7-tetrahydro-isoxazolo[4,5-c]pyridine-3-carboxylic acid [2-(4-chlorophenyl)-ethyl] amide]",63%,
"Cc1ccc(S(=O)(=O)N2CCc3onc(C(=O)N4CCN(CCC5CCCCC5)CC4)c3C2)cc1 [Example 82, [4-(2-cyclohexyl-ethyl)-piperazin-1-yl]-[5-(toluene-4-sulfonyl)-4,5,6,7-tetrahydro-isoxazolo[4,5-c]pyridin-3-yl]-methanone]",62%,

# Same assay, conditions: 10 µM
row,SMILES,"5-HT uptake (rat), 10 μM, % inhibition"
1,"Cc1ccc(S(=O)(=O)N2CCc3onc(C(=O)NCc4ccc(S(N)(=O)=O)cc4)c3C2)cc1 [Example 56, 5-(toluene-4-sulfonyl)-4,5,6,7-tetrahydro-isoxazolo[4,5-c]pyridine-3-carboxylic acid 4-sulfamoyl-benzyl amide]",96%
